Data as given in ChEMBL document CHEMBL3580564, “Semisynthetic Studies on and Biological Evaluation of N-Methyllaurotetanine Analogues as Ligands for 5-HT Receptors” (J Nat Prod, 2015).

Experiments:
Homo sapiens [1] = species: Homo sapiens; test: Selectivity index, ratio of Ki for human recombinant 5-HT1A receptor to Ki for human recombinant 5-HT7 receptor
[2] = biological target: 5-hydroxytryptamine receptor 7 (Homo sapiens, UniProt P34969); test: Displacement of [3H]LSD from human recombinant 5-HT7 receptor expressed in HEK cell membranes by radioligand binding assay; design: species or system HEK293
[3] = biological target: T1, 5-hydroxytryptamine receptor 1A (Homo sapiens, UniProt P08908); test: Displacement of [3H]Way100635 from human recombinant 5-HT1A receptor expressed in CHO cell membranes by radioligand binding assay
T1 sequence (P08908 whole entry): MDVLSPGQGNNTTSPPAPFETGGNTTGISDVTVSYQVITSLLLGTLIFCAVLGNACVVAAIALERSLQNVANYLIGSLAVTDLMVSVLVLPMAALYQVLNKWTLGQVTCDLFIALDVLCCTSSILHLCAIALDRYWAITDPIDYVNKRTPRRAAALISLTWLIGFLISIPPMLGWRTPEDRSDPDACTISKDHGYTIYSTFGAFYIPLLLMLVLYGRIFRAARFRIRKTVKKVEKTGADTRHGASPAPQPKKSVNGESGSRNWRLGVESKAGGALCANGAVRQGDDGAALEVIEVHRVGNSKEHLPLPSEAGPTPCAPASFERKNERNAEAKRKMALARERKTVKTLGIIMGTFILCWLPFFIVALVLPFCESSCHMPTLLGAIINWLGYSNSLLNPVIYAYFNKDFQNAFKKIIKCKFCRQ

Homo sapiens [4] = species: Homo sapiens; test: Selectivity index, ratio of Ki for human recombinant 5-HT2A receptor to Ki for human recombinant 5-HT7 receptor
[5] = biological target: 5-hydroxytryptamine receptor 2A (Homo sapiens, UniProt P28223); test: Displacement of [3H]ketanserin from human recombinant 5-HT2A receptor expressed in HEKT cell membranes by radioligand binding assay; type: cell-based
[6] = biological target: Sodium-dependent dopamine transporter (Homo sapiens, UniProt Q01959); test: Displacement of [3H]WIN35428 from human recombinant DAT expressed in HEK cell membranes by radioligand binding assay; design: species or system HEK293
[7] = biological target: 5-hydroxytryptamine receptor 6 (Homo sapiens, UniProt P50406); test: Displacement of [3H]LSD from human recombinant 5-HT6 receptor expressed in HEK cell membranes by radioligand binding assay; design: species or system HEK293
[8] = biological target: Muscarinic acetylcholine receptor M5 (Homo sapiens) (UniProt P08912); test: Displacement of [3H]QNB/[3H]]NMS from human recombinant muscarinic M5 receptor expressed in CHO cell membranes by radioligand binding assay; conditions: concentration not given here
[9] = biological target: 5-hydroxytryptamine receptor 1E (Homo sapiens) (UniProt P28566); test: Displacement of [3H]5-HT from human recombinant 5-HT1E receptor expressed in HEK cell membranes by radioligand binding assay; conditions: HEK293, concentration not given here
Rattus norvegicus [10] = species: Rattus norvegicus; test: Displacement of [3H]muscimol from rat brain GABAA receptor by radioligand binding assay; conditions: concentration not given here
[11] = biological target: Mu-type opioid receptor (Homo sapiens) (UniProt P35372); test: Displacement of [3H]DAMGO from human recombinant MOR expressed in HEK cell membranes by radioligand binding assay; conditions: HEK293, concentration not given here
[12] = biological target: Beta-2 adrenergic receptor (Homo sapiens, UniProt P07550); test: Displacement of [3H]CGP12177 from human recombinant adrenergic beta2 receptor expressed in CHO Flp-In cell membranes by radioligand binding assay
[13] = biological target: Histamine H4 receptor (Homo sapiens) (UniProt Q9H3N8); test: Displacement of [3H]histamine from human recombinant histamine H4 receptor by radioligand binding assay; conditions: concentration not given here
[14] = biological target: 5-hydroxytryptamine receptor 2B (Homo sapiens, UniProt P41595); test: Displacement of [3H]LSD from human recombinant 5-HT2B receptor expressed in HEK cell membranes by radioligand binding assay; design: species or system HEK293
[15] = biological target: Sodium-dependent noradrenaline transporter (Homo sapiens, UniProt P23975); test: Displacement of [3H]nisoxetine from human recombinant NET expressed in HEK cell membranes by radioligand binding assay; design: species or system HEK293
[16] = biological target: D(4) dopamine receptor (Homo sapiens) (UniProt P21917); test: Displacement of [3H]N-methylspiperone from human recombinant dopamine D4 receptor by radioligand binding assay; conditions: concentration not given here
D(1A) dopamine receptor = D(1A) dopamine receptor (Homo sapiens, UniProt P21728); test: Displacement of [3H]SCH23390 from human recombinant dopamine D1 receptor expressed in HEKT cell membranes by radioligand binding assay
[17] = biological target: D(2) dopamine receptor (Homo sapiens) (UniProt P14416); test: Displacement of [3H]N-methylspiperone from human recombinant dopamine D2 receptor expressed in fibroblasts cell membranes by radioligand binding assay; conditions: Fibroblast, concentration not given here
[18] = biological target: Muscarinic acetylcholine receptor M1 (Homo sapiens) (UniProt P11229); test: Displacement of [3H]QNB/[3H]]NMS from human recombinant muscarinic M1 receptor expressed in CHO cell membranes by radioligand binding assay; conditions: concentration not given here
[19] = biological target: Histamine H1 receptor (Homo sapiens) (UniProt P35367); test: Displacement of [3H]pyrilamine from human recombinant histamine H1 receptor expressed in HEK cell membranes by radioligand binding assay; conditions: HEK293, concentration not given here
[20] = biological target: Histamine H3 receptor (Homo sapiens) (UniProt Q9Y5N1); test: Displacement of [3H]alpha-methylhistamine from human recombinant histamine H3 receptor expressed in HEKFlp-In cell membranes by radioligand binding assay; conditions: concentration not given here
[21] = biological target: Alpha-1B adrenergic receptor (Homo sapiens, UniProt P35368); test: Displacement of [3H]prazosin from human recombinant adrenergic alpha1B receptor expressed in HEKT cell membranes by radioligand binding assay
[22] = biological target: 5-hydroxytryptamine receptor 5A (Homo sapiens, UniProt P47898); test: Displacement of [3H]LSD from human recombinant 5-HT5A receptor expressed in Flp-In CHO cell membranes by radioligand binding assay
[23] = biological target: Alpha-2B adrenergic receptor (Homo sapiens) (UniProt P18089); test: Displacement of [3H]rauwolscine from human recombinant adrenergic alpha2B receptor expressed in HEKT cell membranes by radioligand binding assay; conditions: concentration not given here
D(3) dopamine receptor = D(3) dopamine receptor (Homo sapiens, UniProt P35462); test: Displacement of [3H]N-methylspiperone from human recombinant dopamine D3 receptor expressed in HEKT cell membranes by radioligand binding assay
Sigma 2 receptor = test: Displacement of [3H]DTG from human recombinant sigma2 receptor by radioligand binding assay; conditions: concentration not given here
[24] = biological target: Muscarinic acetylcholine receptor M3 (Homo sapiens) (UniProt P20309); test: Displacement of [3H]QNB/[3H]]NMS from human recombinant muscarinic M3 receptor expressed in CHO cell membranes by radioligand binding assay; conditions: concentration not given here
[25] = biological target: Sodium-dependent serotonin transporter (Homo sapiens, UniProt P31645); test: Displacement of [3H]citalopram from human recombinant SERT expressed in HEK cell membranes by radioligand binding assay; design: species or system HEK293
[26] = biological target: D(1B) dopamine receptor (Homo sapiens) (UniProt P21918); test: Displacement of [3H]SCH23390 from human recombinant dopamine D5 receptor expressed in HEKT cell membranes by radioligand binding assay; conditions: concentration not given here
[27] = biological target: Sigma non-opioid intracellular receptor 1 (Cavia porcellus) (UniProt Q60492); test: Binding affinity to guinea pig sigma1 receptor by radioligand binding assay; conditions: concentration not given here
Rattus norvegicus [28] = species: Rattus norvegicus; test: Displacement of [3H]flunitrazepam from rat brain benzodiazepine receptor by radioligand binding assay; conditions: concentration not given here
[29] = biological target: 5-hydroxytryptamine receptor 3A (Homo sapiens) (UniProt P46098); test: Displacement of [3H]GR65630 from human recombinant 5-HT3 receptor expressed in HEKT cell membranes by radioligand binding assay; conditions: concentration not given here
[30] = biological target: Alpha-2C adrenergic receptor (Homo sapiens, UniProt P18825); test: Displacement of [3H]rauwolscine from human recombinant adrenergic alpha2C receptor expressed in MDCK cell membranes by radioligand binding assay
[31] = biological target: Alpha-1A adrenergic receptor (Homo sapiens) (UniProt P35348); test: Displacement of [3H]prazosin from human recombinant adrenergic alpha1A receptor by radioligand binding assay; conditions: concentration not given here
[32] = biological target: Muscarinic acetylcholine receptor M4 (Homo sapiens) (UniProt P08173); test: Displacement of [3H]QNB/[3H]]NMS from human recombinant muscarinic M4 receptor expressed in CHO cell membranes by radioligand binding assay; conditions: concentration not given here
[33] = biological target: Alpha-1D adrenergic receptor (Homo sapiens) (UniProt P25100); test: Displacement of [3H]prazosin from human recombinant adrenergic alpha1D receptor by radioligand binding assay; conditions: concentration not given here
[34] = biological target: Kappa-type opioid receptor (Homo sapiens) (UniProt P41145); test: Displacement of [3H]U69593 from human recombinant KOR expressed in HEK cell membranes by radioligand binding assay; conditions: HEK293, concentration not given here
[35] = biological target: Translocator protein (Rattus norvegicus) (UniProt P16257); test: Displacement of [3H]PK11195 from rat brain PBR by radioligand binding assay; conditions: concentration not given here
[36] = biological target: 5-hydroxytryptamine receptor 2C (Homo sapiens, UniProt P28335); test: Displacement of [3H]mesulergine from human recombinant 5-HT2C receptor expressed in Flp-IN HEK cell membranes by radioligand binding assay; design: species or system HEK293
[37] = biological target: Muscarinic acetylcholine receptor M2 (Homo sapiens) (UniProt P08172); test: Displacement of [3H]QNB/[3H]]NMS from human recombinant muscarinic M2 receptor expressed in CHO cell membranes by radioligand binding assay; conditions: concentration not given here
[38] = biological target: Delta-type opioid receptor (Homo sapiens) (UniProt P41143); test: Displacement of [3H]DADLE from human recombinant DOR expressed in HEK cell membranes by radioligand binding assay; conditions: HEK293, concentration not given here
[39] = biological target: T2, 5-hydroxytryptamine receptor 1A (Homo sapiens) (UniProt P08908); test: Potency index, ratio of Ki for N-Methyllaurotetanine to Ki for test compound against human recombinant 5-HT1A receptor expressed in CHO cell membranes by radioligand binding assay
T2 sequence (whole entry): T1 sequence (P08908 whole entry)

5-hydroxytryptamine receptor 2A, sequence (P28223 whole entry): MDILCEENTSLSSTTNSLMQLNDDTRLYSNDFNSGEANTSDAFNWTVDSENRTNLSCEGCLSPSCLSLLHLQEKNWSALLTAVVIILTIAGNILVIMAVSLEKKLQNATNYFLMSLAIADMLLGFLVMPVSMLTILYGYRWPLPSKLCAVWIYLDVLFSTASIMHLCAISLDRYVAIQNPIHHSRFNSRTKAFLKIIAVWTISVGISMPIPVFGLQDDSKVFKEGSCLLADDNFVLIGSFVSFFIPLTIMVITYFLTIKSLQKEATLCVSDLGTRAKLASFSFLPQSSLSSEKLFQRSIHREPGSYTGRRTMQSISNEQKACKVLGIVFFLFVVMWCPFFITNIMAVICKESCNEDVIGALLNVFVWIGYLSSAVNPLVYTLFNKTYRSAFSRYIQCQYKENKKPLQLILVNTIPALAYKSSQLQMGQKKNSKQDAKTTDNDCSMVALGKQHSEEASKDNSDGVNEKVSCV
5-hydroxytryptamine receptor 7, sequence (P34969 whole entry): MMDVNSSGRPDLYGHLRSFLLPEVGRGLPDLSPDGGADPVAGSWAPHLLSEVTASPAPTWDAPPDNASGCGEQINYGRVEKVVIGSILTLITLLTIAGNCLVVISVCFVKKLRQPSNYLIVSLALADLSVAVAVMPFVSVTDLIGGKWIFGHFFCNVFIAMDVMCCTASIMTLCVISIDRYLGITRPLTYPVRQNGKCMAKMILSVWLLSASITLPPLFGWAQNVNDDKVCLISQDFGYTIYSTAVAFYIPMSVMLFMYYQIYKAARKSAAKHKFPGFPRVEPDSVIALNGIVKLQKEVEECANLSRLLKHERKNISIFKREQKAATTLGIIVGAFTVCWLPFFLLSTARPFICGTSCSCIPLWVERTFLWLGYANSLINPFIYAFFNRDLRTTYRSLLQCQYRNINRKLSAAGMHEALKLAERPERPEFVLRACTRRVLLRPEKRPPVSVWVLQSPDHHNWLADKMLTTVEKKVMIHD
5-hydroxytryptamine receptor 3A (Homo sapiens), sequence (P46098 whole entry): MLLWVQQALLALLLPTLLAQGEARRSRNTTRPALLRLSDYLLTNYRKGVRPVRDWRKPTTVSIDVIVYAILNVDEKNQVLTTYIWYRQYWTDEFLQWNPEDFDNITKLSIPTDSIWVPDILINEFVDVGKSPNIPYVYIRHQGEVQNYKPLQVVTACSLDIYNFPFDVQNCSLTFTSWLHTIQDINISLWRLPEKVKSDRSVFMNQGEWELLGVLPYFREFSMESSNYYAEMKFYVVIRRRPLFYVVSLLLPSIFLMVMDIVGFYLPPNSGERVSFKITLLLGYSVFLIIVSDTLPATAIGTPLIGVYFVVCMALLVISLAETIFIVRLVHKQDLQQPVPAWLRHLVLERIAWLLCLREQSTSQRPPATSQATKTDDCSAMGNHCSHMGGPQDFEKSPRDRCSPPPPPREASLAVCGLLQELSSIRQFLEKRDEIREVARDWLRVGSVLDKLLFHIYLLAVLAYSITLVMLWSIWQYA
Alpha-1D adrenergic receptor (Homo sapiens), sequence (P25100 whole entry): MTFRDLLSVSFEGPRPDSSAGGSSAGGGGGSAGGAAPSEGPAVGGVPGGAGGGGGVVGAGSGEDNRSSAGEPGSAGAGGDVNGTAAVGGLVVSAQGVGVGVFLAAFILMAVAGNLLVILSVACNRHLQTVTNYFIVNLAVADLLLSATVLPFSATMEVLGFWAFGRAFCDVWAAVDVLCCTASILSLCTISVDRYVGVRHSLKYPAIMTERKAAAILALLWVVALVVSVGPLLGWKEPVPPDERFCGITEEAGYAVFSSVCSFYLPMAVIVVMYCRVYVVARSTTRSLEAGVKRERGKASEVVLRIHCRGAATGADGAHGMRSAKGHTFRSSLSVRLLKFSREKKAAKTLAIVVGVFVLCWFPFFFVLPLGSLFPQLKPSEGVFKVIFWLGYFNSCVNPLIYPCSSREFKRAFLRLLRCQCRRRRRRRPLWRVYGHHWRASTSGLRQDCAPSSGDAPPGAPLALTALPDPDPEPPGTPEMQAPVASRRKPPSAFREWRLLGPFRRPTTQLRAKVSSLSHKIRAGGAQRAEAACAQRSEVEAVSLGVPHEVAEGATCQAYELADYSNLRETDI
Mu-type opioid receptor (Homo sapiens), sequence (P35372 whole entry): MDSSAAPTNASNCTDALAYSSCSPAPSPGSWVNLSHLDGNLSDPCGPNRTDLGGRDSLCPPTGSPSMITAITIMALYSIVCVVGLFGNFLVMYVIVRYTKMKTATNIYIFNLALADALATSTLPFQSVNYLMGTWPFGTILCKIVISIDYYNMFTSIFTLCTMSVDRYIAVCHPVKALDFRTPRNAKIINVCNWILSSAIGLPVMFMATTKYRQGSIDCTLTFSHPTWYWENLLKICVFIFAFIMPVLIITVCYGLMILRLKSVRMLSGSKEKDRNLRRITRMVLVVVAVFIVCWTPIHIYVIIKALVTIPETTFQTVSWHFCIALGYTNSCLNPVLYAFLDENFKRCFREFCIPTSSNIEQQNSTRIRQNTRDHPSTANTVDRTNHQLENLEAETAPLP
5-hydroxytryptamine receptor 1E (Homo sapiens), sequence (P28566 whole entry): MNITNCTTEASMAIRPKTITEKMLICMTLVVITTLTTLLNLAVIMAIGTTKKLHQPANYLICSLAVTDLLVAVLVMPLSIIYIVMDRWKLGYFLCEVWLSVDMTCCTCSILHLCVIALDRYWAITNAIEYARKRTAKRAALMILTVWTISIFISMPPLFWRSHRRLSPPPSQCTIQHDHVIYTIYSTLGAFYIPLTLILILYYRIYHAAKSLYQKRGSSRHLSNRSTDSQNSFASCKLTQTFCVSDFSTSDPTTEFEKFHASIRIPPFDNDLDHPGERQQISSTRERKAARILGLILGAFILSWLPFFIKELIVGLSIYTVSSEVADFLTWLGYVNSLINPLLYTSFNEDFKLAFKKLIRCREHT
Histamine H3 receptor (Homo sapiens), sequence (Q9Y5N1 whole entry): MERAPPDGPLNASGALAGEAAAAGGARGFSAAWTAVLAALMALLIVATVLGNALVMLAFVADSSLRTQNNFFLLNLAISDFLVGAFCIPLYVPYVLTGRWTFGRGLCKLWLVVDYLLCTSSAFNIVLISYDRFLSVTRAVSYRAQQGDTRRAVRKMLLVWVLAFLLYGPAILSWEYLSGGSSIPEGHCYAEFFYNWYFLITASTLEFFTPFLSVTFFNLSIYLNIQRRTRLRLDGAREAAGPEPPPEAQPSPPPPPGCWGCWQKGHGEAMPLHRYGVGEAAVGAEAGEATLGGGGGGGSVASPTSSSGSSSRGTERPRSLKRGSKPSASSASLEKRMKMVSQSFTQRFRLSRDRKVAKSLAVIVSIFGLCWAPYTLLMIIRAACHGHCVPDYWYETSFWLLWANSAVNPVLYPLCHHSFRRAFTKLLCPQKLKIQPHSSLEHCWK
Muscarinic acetylcholine receptor M4 (Homo sapiens), sequence (P08173 whole entry): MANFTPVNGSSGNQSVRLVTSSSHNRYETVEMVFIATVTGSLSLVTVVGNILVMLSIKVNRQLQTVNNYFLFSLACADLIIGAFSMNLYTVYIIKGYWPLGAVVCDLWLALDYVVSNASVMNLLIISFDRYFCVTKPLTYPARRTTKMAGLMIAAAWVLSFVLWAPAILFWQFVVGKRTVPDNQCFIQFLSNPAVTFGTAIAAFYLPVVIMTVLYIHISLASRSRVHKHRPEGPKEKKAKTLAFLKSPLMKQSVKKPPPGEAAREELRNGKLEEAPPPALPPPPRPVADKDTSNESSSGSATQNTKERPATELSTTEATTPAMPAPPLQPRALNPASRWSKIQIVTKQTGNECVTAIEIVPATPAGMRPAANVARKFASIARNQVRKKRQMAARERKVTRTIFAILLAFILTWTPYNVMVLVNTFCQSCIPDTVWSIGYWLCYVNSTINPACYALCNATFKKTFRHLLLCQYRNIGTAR
Alpha-1A adrenergic receptor (Homo sapiens), sequence (P35348 whole entry): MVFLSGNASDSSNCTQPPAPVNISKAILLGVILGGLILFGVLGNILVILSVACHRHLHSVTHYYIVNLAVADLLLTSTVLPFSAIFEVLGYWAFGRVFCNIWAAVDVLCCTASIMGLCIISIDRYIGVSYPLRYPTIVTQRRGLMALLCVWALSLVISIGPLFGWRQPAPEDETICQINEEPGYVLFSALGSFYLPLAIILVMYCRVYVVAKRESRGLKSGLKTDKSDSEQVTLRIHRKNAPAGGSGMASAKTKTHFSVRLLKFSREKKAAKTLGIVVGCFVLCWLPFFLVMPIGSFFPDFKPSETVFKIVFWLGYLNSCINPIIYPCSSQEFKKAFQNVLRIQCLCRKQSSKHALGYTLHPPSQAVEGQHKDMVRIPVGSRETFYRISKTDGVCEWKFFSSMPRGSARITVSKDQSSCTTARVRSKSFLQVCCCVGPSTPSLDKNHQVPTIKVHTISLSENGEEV
Translocator protein (Rattus norvegicus), sequence (P16257 whole entry, looked up): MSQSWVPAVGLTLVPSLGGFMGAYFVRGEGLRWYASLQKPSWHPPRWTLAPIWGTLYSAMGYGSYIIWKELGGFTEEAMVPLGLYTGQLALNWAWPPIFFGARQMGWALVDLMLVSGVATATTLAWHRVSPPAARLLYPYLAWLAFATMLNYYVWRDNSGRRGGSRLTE
D(2) dopamine receptor (Homo sapiens), sequence (P14416 whole entry): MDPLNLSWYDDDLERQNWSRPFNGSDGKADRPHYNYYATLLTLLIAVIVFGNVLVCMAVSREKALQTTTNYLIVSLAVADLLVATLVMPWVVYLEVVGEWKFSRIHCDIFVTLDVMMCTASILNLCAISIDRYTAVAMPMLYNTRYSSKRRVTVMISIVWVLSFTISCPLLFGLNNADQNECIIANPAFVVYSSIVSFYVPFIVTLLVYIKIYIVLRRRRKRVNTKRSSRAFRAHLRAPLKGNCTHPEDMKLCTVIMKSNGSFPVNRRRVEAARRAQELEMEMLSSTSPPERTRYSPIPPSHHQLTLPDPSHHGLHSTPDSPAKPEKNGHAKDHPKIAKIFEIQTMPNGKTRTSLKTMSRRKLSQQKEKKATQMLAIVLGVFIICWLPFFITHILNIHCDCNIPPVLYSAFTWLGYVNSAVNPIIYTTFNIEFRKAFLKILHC

Compound `CCOc1cc2c(cc1OC)-c1c(OC)c(OC)cc3c1[C@H](C2)N(C)CC3` has a Ratio Ki (Homo sapiens [1]) of 7, a Ki [2] of 69 nM and a Ki [3] of 506 nM. It also gave a Ratio Ki (Homo sapiens [4]) of 12 and a Ki [5] of 818 nM.

In the case of `COc1cc2c(cc1OCC1CC1)C[C@H]1c3c(cc(OC)c(OC)c3-2)CCN1C`, the Ratio Ki (Homo sapiens [1]) is reported as 10, the Ki [2] is reported as 22 nM and the Ki [3] is reported as 224 nM. For the same compound, the Ki [5] was 582 nM.

`COc1cc2c(cc1O)C[C@H]1c3c(cc(OC)c(OC)c3-2)CCN1C` showed a Ki [6] greater than 950 nM, a Ki [7] of 306 nM and an inhibition [8] of less than 50%. The Ratio Ki (Homo sapiens [1]) was 16, the inhibition [9] was less than 50% and the inhibition (Rattus norvegicus [10]) was less than 50%. The inhibition [11] was less than 50%, the Ki [12] was greater than 950 nM and the inhibition [13] was less than 50%. It also gave a Ki [14] of 323 nM, a Ki [2] of 20 nM and a Ki [15] greater than 950 nM. For the same compound, the inhibition [16] was less than 50%, the Ki (D(1A) dopamine receptor) was 373 nM and the Ki [3] was 314 nM. It also gave an inhibition [17] of less than 50%, an inhibition [18] of less than 50% and an inhibition [19] of less than 50%. It also gave an inhibition [20] of less than 50%, a Ki [21] greater than 950 nM and a Ki [22] of 566 nM. It also gave an inhibition [23] of less than 50%, a Ki (D(3) dopamine receptor) greater than 950 nM and an inhibition (Sigma 2 receptor) of less than 50%. It also gave an inhibition [24] of less than 50%, a Ki [25] greater than 950 nM and an inhibition [26] of less than 50%. It also gave an inhibition [27] of less than 50%, an inhibition (Rattus norvegicus [28]) of less than 50% and an inhibition [29] of less than 50%. It also gave a Ki [30] greater than 950 nM, an inhibition [31] of less than 50% and an inhibition [32] of less than 50%. The inhibition [33] was less than 50%, the inhibition [34] was less than 50% and the inhibition [35] was less than 50%. The Ki [36] was greater than 950 nM, the inhibition [37] was less than 50% and the inhibition [38] was less than 50%.

In the case of `COc1cc2c(cc1OCc1ccccc1)C[C@H]1c3c(cc(OC)c(OC)c3-2)CCN1C`, the Ratio Ki (Homo sapiens [1]) is reported as 4, the Ki [2] is reported as 23 nM and the Ki [3] is reported as 92 nM. For the same compound, the Ratio Ki (Homo sapiens [4]) was 9, the Ratio Ki [39] was 3 and the Ki [5] was 216 nM.

`COc1cc2c(cc1OCCF)C[C@H]1c3c(cc(OC)c(OC)c3-2)CCN1C` gave a Ratio Ki (Homo sapiens [1]) of 16, a Ki [2] of 52 nM and a Ki [3] of 845 nM. For the same compound, the Ratio Ki (Homo sapiens [4]) was 22 and the Ki [5] was 1160 nM.

Work on `C=CCOc1cc2c(cc1OC)-c1c(OC)c(OC)cc3c1[C@H](C2)N(C)CC3` yielded a Ratio Ki (Homo sapiens [1]) of 18, a Ki [2] of 20 nM and a Ki [3] of 361 nM. It also gave a Ratio Ki (Homo sapiens [4]) of 18 and a Ki [5] of 383 nM.

With `CCCCOc1cc2c(cc1OC)-c1c(OC)c(OC)cc3c1[C@H](C2)N(C)CC3` the Ratio Ki (Homo sapiens [1]) was 10, the Ki [2] was 15 nM and the Ki [3] was 153 nM. It also gave a Ratio Ki (Homo sapiens [4]) of 18 and a Ki [5] of 268 nM.

`COc1cc2c(cc1OCc1ccc(Br)cc1)C[C@H]1c3c(cc(OC)c(OC)c3-2)CCN1C` gave a Ratio Ki (Homo sapiens [1]) of 2, a Ki [2] of 54 nM and a Ki [3] of 102 nM. It also gave a Ratio Ki (Homo sapiens [4]) of 8, a Ratio Ki [39] of 3 and a Ki [5] of 418 nM.
